Where two headings read alike, the source gives them in different places.
Tests used:
[1] = tested on: HeLa (cervical tumor); assay: Cell viability, MTT test; assay type: cell-based; settings: Homo sapiens, read-out: IC50 (concentration causing 50% inhibition of cell population growth)
Description: In this work, the cytotoxic potential of the water-soluble salts based on benzofuroxan was determined by the effect of compounds on the survival of the cell tumor origin cultures (SH-SY5Y, Hep2, A549, HeLa) using the MTT test. To understand how the synthesized compounds can influence the healthy microenvironment in the body, the effect of substances on the viability of a normal Hek 293 cell culture was additionally evaluated.
Human cell cultures of tumor origin—SH-SY5Y (neuroblastoma), HeLa (cervical tumor), Hep-2 (larynx carcinoma), A549 (adenocarcinomic human alveolar basal epithelial cells)—and normal cell line Hek 293 (human embryonic kidneys), provided by the Laboratory of Tumor Cell Genetics of the Scientific Research Institute of Carcinogenesis, N.N. Blokhin National Medical Research Center of Oncology, as well as the Institute of Cytology of the Russian Academy of Sciences, were grown in a nutrient medium DMEM (PanEco, Moscow, Russia) and MEM (PanEco, Moscow, Russia), containing fetal bovine serum (10% by volume) (ThermoFisher Scientific, Paisley, UK), Glutamax (2 mM) (Gibco, Scotland, UK), and penicillin-streptomycin (1% by volume) (PanEco, Moscow, Russia). The cultivation was carried out at 37 °C in a humidified CO2 atmosphere (5%).
Cell viability was determined by MTT test. Cells were seeded in a 96-well plate in the amount of 1 × 10^4 cells/200µLof complete nutrient medium and cultured at 37 °C in CO2 (5%). After 24 h of incubation, various concentrations of test compounds in the range from 0.1 to 100 μM, were added to the cell cultures, and then the cells were cultured under the same conditions for 24 and 72 h. For each concentration, the experiment was carried out in triplicate.
All compounds were dissolved in DMSO, then diluted with the medium to the required concentration. […] The DMSO was also added to the control wells in a volume of 1%. After the incubation time, MTT (3-(4,5-dimethylthiazol-2-yl)-2,5-diphenyltetrazolium bromide, 5 mg/mL) was added to each well and plates were additionally incubated for 2 h (until the characteristic color appeared).
Using a plate analyzer (Cytation3, BioTech Instruments Inc., Winooski, VT, USA), the optical density was determined at 530 nm. The concentration value causing 50% inhibition of cell population growth (IC50) was determined from dose-dependent curves.

[2] = tested on: sorghum seeds; assay: Pre-sowing seed treatment, sowing qualities of sorghum seeds; assay type: in vivo; settings: for germination energy: control 52.3; for laboratory germination: control 57
Description: (§1) When evaluating the effectiveness of treatment of wheat, alfalfa, barley, rice, and sorghum seeds as fungicidal and bactericidal agents with preparation compounds at concentrations of 10, 20, and 40 mmol, their effect on the suppression of seed infection was evaluated.
(§2) […] The sowing qualities were evaluated (germination energy for 3–4 days, laboratory germination for 7–8 days) according to GOST 12038-84 [60]. Sowing qualities of seeds were determined in wet chambers. According to the sample, 50 seeds were taken in 4-fold repetition.

[3] = tested on: murine leukemia P388 in BDF1 mice; assay: Antitumor activity in vivo, transplanted murine leukemia P388; settings: for increase in the average lifespan (ILS): single i.p. injection; for lifespan of animals: single i.p., doses from 1/8 MPD to MPD, control animals all die by day 11
Description: The study of the antitumor activity of compounds 4e and 4g was carried out using transplanted experimental murine tumor leukemia P388. In the experiment, concentrations from 1.25 to 10 mg/kg were used for 4e, and from 0.625 to 5 mg/kg for 4g. The concentrations used correspond to values from 1/8 MPD to MPD for the studied compounds.
Studies of antitumor activity were carried out on hybrid male mice BDF1 [DBA2×C57Bl6] weighing from 22 to 24 g. In the experiment, clinically healthy animals were used, which were kept in the same conditions with a 12-h light and free access to water and food. Each experimental group included six animals. Transplantation of mouse leukemia P388 was performed intraperitoneally with a concentration of 10^6 cells in 200μLof 0.9% NaCl solution per animal. Compounds 4e and 4g were dissolved in 0.9% NaCl solution and administered intraperitoneally once in the dose range 1.25–10 mg/kg and 0.625–5 mg/kg, respectively. The compounds were administered the next day after tumor cell transplantation. Control animals received 0.9% NaCl solution. The effectiveness of therapy was assessed by the increase in the average life span (ILS, %) of the animals.

[4] = tested on: BDF1 mice; assay: Acute toxicity, single intraperitoneal administration; assay type: in vivo; settings: for toxicity class from acute toxicity study / time after administration at which death of animals began: single i.p.; for LD100 / LD16 / LD84: single intraperitoneal administration, doses given in mg/kg; for LD16 / LD84: probit analysis
Description: (§3) To determine LD50, a curve of increasing toxicity was built with increasing dose, based on which the following parameters were additionally determined: MTD, LD16, LD84 and LD100.
(§4) In the experiment, clinically healthy animals were used, which were kept in the same conditions with a 12-h light and free access to water and food. Each experimental group included six animals. […] Control animals received 0.9% NaCl solution. Animals were monitored continuously for 4 h on the first day after administration of the test compounds. […] Calculation of toxic doses was performed using probit analysis.

[5] = as above; assay type: in vivo; settings: male, BDF1 [DBA2 × C57Bl6] hybrid, mouse, in vivo, ip, BDF1 mice, single intraperitoneal administration; for MTD at 14 days: doses given in mg/kg; for LD50 at 14 days: probit analysis
Description: as §3, §4

[6] = tested on: glycolysis in SH-SY5Y cells; assay: Glycolysis stress test (ECAR, Seahorse XF96e); assay type: cell-based, Human; settings: 100 µM
Description: Using the cell metabolism analyzer Agilent Seahorse XF96e Analyzer (Seahorse Bioscience, North Billerica, MA, USA), the rate of extracellular acidification of the medium (ECAR) in cells of tumor origin SH-SY5Y was evaluated as a glycolysis measure.
The ability of compounds to suppress anaerobic glycolysis was studied using the Agilent Seahorse XF96e Analyzer (Seahorse Bioscience, North Billerica, MA, USA) by the level of hydrogen proton production in the studied samples on cell lines of neuroblastoma SH-SY5Y using a glycolysis stress test [62]. The rate of extracellular acidification of the medium was measured in real time, which made it possible to assess the intensity of glycolysis in cells by fixing the three main parameters of the glycolytic function: basal glycolysis, glycolytic capacity, and glycolytic reserve.
SH-SY5Y cells in the exponential growth phase were seeded in a 96-well Seahorse cell culture microplate. The planting density of the cell culture was 2 × 10^4/well. […]
The test compounds were added from port A at a concentration of 100 μM. To determine the effect of test compounds on basal glycolysis of neoplastic cells, 10 mM glucose was added from port B. The maximum glycolytic capacity was assessed by injecting oligomycin at a concentration of 1 μM from port C. […]

[7] = tested on: rice seeds; assay: Pre-sowing seed treatment, sowing qualities of rice seeds; assay type: in vivo; settings: for germination energy: control 71.4; for laboratory germination: control 95.2
Description: as §1, §2

[8] = single i.p. 10 mg/kg, 0 Day, control 21.55 ± 0.28
[9] = single i.p. 10 mg/kg, 1 Day, control 21.43 ± 0.56
[10] = single i.p. 10 mg/kg, 2 Days, control 21.67 ± 0.77
[11] = single i.p. 10 mg/kg, 3 Days, control 21.99 ± 0.79
[12] = single i.p. 10 mg/kg, 7 Days, control 22.80 ± 0.44
[13] = single i.p. 10 mg/kg, 14 Days, control 23.96 ± 0.68
[14] = single i.p. 15 mg/kg, 0 Day, control 21.55 ± 0.28
[15] = single i.p. 15 mg/kg, 1 Day, control 21.43 ± 0.56
[16] = single i.p. 15 mg/kg, 2 Days, control 21.67 ± 0.77
[17] = single i.p. 15 mg/kg, 3 Days, control 21.99 ± 0.79
[18] = single i.p. 15 mg/kg, 7 Days, control 22.80 ± 0.44
[19] = single i.p. 15 mg/kg, 14 Days, control 23.96 ± 0.68
[20] = single i.p. 20 mg/kg, 0 Day, control 21.55 ± 0.28
[21] = single i.p. 20 mg/kg, 1 Day, control 21.43 ± 0.56
[22] = single i.p. 20 mg/kg, 2 Days, control 21.67 ± 0.77
[23] = single i.p. 20 mg/kg, 3 Days, control 21.99 ± 0.79
[24] = single i.p. 20 mg/kg, 7 Days, control 22.80 ± 0.44
[25] = single i.p. 20 mg/kg, 14 Days, control 23.96 ± 0.68
[26] = single i.p. 25 mg/kg, 0 Day, control 21.55 ± 0.28

O=[N+]([O-])c1c(Cl)cc2c(no[n+]2[O-])c1NCCCN1CCOCC1 [4e, 6-chloro-4-(3-(morpholino-4-ium)propylamino)-5-nitrobenzo[c][1,2,5]oxadiazole 1-oxide chloride]
IC50 ([1]; 24 h): > 100 µM | IC50 ([1]; 72 h): 93.8 ± 2.53 µM | germination energy ([2]; 10 mmol): 33.3% | laboratory germination ([2]; 10 mmol): 63.3% | germination energy ([2]; 20 mmol): 50.5% | laboratory germination ([2]; 20 mmol): 56% | germination energy ([2]; 40 mmol): 50.5% | laboratory germination ([2]; 40 mmol): 52.5% | increase in the average lifespan (ILS) ([3]; 2.5 mg/kg): 28% | lifespan of animals [3]: up to 16 days | toxicity class from acute toxicity study [4]: highly toxic | Body Weight [4, 8]: 20.25 ± 0.39 g | Body Weight [4, 9]: 20.39 ± 0.47 g | Body Weight [4, 10]: 20.51 ± 0.40 g | Body Weight [4, 11]: 20.88 ± 0.31 g | Body Weight [4, 12]: 21.58 ± 0.51 g | Body Weight [4, 13]: 22.12 ± 0.62 g | Body Weight [4, 14]: 21.48 ± 0.47 g | Body Weight [4, 15]: 21.45 ± 0.51 g | Body Weight [4, 16]: 21.56 ± 0.49 g | Body Weight [4, 17]: 21.62 ± 0.59 g | Body Weight [4, 18]: 22.02 ± 0.47 g | Body Weight [4, 19]: 22.66 ± 0.38 g | Body Weight [4, 20]: 21.45 ± 0.52 g | Body Weight [4, 21]: 21.44 ± 0.71 g | Body Weight [4, 22]: 21.88 ± 0.81 g | Body Weight [4, 23]: 22.02 ± 0.74 g | Body Weight [4, 24]: 22.74 ± 0.58 g | Body Weight [4, 25]: 23.01 ± 0.65 g | Body Weight [4, 26]: 22.27 ± 0.29 g | Body Weight ([4]; single i.p. 25 mg/kg, 1 Day, control 21.43 ± 0.56): 21.98 g | Body Weight ([4]; single i.p. 25 mg/kg, 2 Days, control 21.67 ± 0.77): 21.81 g | Body Weight ([4]; single i.p. 25 mg/kg, 3 Days, control 21.99 ± 0.79): 21.89 g | Body Weight ([4]; single i.p. 25 mg/kg, 7 Days, control 22.80 ± 0.44): 22.15 g | Body Weight ([4]; single i.p. 25 mg/kg, 14 Days, control 23.96 ± 0.68): 22.74 g | Body Weight ([4]; single i.p. 30 mg/kg, 0 Day, control 21.55 ± 0.28): 21.92 ± 0.13 g | time after administration at which death of animals began ([4]; doses of 15–30 mg/kg): 5 to 30 min | LD100 [4]: 30 | LD16 [4]: 18.2 | LD84 [4]: 24.6 | MTD at 14 days [5]: 10 mg/kg | LD50 at 14 days [5]: 22 ± 1.33 mg/kg | suppression of glycolytic function parameters ([6]; compared with control samples): 60% | germination energy ([7]; 10 mmol): 38% | laboratory germination ([7]; 10 mmol): 38% | sowing qualities of seeds compared with control ([7]; 20 mmol): better results than the control | germination energy ([7]; 20 mmol): 98.5% | laboratory germination ([7]; 20 mmol): 99% | sowing qualities of seeds compared with control ([7]; 40 mmol): better results than the control | germination energy ([7]; 40 mmol): 99% | laboratory germination ([7]; 40 mmol): 99%

CN(C)CCCNc1c([N+](=O)[O-])c(Cl)cc2c1no[n+]2[O-].Cl [4g, 6-chloro-4-(3-(dimethylammonio)propylamino)-5-nitrobenzo[c][1,2,5]oxadiazole 1-oxide chloride]
IC50 ([1]; 24 h): 97.8 ± 3.31 µM | IC50 ([1]; 72 h): 83.1 ± 4.29 µM | germination energy ([2]; 10 mmol): 36.6% | laboratory germination ([2]; 10 mmol): 50% | sowing qualities of seeds compared with control ([2]; 20 mmol): higher than in the control | germination energy ([2]; 20 mmol): 61.9% | laboratory germination ([2]; 20 mmol): 71.4% | sowing qualities of seeds compared with control ([2]; 40 mmol): higher than in the control | germination energy ([2]; 40 mmol): 57.2% | laboratory germination ([2]; 40 mmol): 80.9% | increase in the average lifespan (ILS) ([3]; 5 mg/kg): 25% | lifespan of animals [3]: up to 16 days | toxicity class from acute toxicity study [4]: highly toxic | Body Weight ([4]; single i.p. 5 mg/kg, 0 Day, control 21.55 ± 0.28): 21.88 ± 0.45 g | Body Weight ([4]; single i.p. 5 mg/kg, 1 Day, control 21.43 ± 0.56): 21.59 ± 0.55 g | Body Weight ([4]; single i.p. 5 mg/kg, 2 Days, control 21.67 ± 0.77): 21.64 ± 0.71 g | Body Weight ([4]; single i.p. 5 mg/kg, 3 Days, control 21.99 ± 0.79): 21.72 ± 0.79 g | Body Weight ([4]; single i.p. 5 mg/kg, 7 Days, control 22.80 ± 0.44): 22.12 ± 0.75 g | Body Weight ([4]; single i.p. 5 mg/kg, 14 Days, control 23.96 ± 0.68): 23.19 ± 1.21 g | Body Weight [4, 8]: 21.99 ± 0.21 g | Body Weight [4, 9]: 21.54 ± 0.41 g | Body Weight [4, 10]: 21.60 ± 0.52 g | Body Weight [4, 11]: 21.86 ± 0.66 g | Body Weight [4, 12]: 22.84 ± 1.06 g | Body Weight [4, 13]: 23.70 ± 1.12 g | Body Weight [4, 14]: 21.86 ± 0.57 g | Body Weight [4, 15]: 21.36 ± 2.51 g | Body Weight [4, 16]: 21.60 ± 2.43 g | Body Weight [4, 17]: 22.11 ± 3.03 g | Body Weight [4, 18]: 22.41 ± 2.74 g | Body Weight [4, 19]: 23.15 ± 2.14 g | Body Weight [4, 20]: 22.37 ± 0.80 g | Body Weight [4, 21]: 21.99 ± 3.09 g | Body Weight [4, 22]: 21.77 ± 3.79 g | Body Weight [4, 23]: 21.85 ± 3.18 g | Body Weight [4, 24]: 22.81 ± 3.89 g | Body Weight [4, 25]: 23.41 ± 3.01 g | Body Weight [4, 26]: 21.87 ± 0.74 g | time after administration at which death of animals began ([4]; doses of 10–25 mg/kg): 5 to 30 min | LD100 [4]: 25 | LD16 [4]: 9.4 | LD84 [4]: 20.3 | MTD at 14 days [5]: 5 mg/kg | LD50 at 14 days [5]: 13.8 ± 1.73 mg/kg | glycolytic parameters (basal glycolysis, glycolytic capacity, glycolytic reserve) ([6]; ECAR): reaching a minimum | germination energy ([7]; 10 mmol): 38% | laboratory germination ([7]; 10 mmol): 47.6% | germination energy ([7]; 20 mmol): 71.4% | laboratory germination ([7]; 20 mmol): 100% | sowing qualities of seeds compared with control ([7]; 40 mmol): at the control level | germination energy ([7]; 40 mmol): 76.1% | laboratory germination ([7]; 40 mmol): 95.2%

Source: publication PMC9739695, “Water-Soluble Salts Based on Benzofuroxan Derivatives—Synthesis and Biological Activity” (International Journal of Molecular Sciences, 2022)
